Measurements from US12441762B2, “Hepatitis c virus NS3/4A protease inhibitors” (priority 2019, dated 2025).
Where two headings read alike, the source gives them in different places.

Assays:
[1] = rcm bond, 15-membered ring, Zhan 1B, 1,2-DCE, 70.0 °C
[2] = rcm bond, 70.0 °C, 6.0 h
[3] = biological target: T1, wild-type HCV NS3/4A protease (GT1a) (Hepatitis C virus genotype 1a, UniProt P27958, C1185S); assay: biochemical; type: biochemical
T1 construct: His-tag (cleaved yes); made in house; host or cells: Escherichia coli BL21(DE3), PET28a vector
T1 sequence (P27958 1027-1208 C1185S): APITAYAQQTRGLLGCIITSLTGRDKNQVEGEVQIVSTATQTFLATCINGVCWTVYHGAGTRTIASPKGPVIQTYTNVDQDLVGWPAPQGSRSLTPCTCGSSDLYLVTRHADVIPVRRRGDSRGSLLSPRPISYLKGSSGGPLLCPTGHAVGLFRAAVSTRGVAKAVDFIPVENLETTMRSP
Procedure, shortened: (§1)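 Inhibitors pre-incubated 1 h at room temperature with 2 nM NS3/4A protease (GT1a C159S or D168A) in 50 mM Tris, 5% glycerol, 10 mM DTT, 0.6 mM LDAO, 4% DMSO, pH 7.5. Km from global Michaelis-Menten fit of inner-filter-corrected initial velocities; three independent data sets per inhibitor and construct.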

[4] = biological target: T2, HCV NS3/4A protease D168A variant (Hepatitis C virus genotype 1a, UniProt P27958, C1185S/D1194A); assay: biochemical; type: biochemical
T2 construct: His-tag (cleaved yes); made in house; host or cells: Escherichia coli BL21(DE3), PET28a vector
T2 sequence (P27958 1027-1208 C1185S/D1194A): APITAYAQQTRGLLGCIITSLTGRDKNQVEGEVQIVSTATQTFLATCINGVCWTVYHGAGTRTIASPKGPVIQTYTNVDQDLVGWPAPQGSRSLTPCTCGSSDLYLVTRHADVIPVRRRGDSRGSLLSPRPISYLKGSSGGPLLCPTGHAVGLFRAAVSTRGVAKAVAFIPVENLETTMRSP
Procedure, shortened: as §1

HCV NS3/4A protease GT3 = HCV NS3/4A protease GT3 (Hepatitis C virus genotype 3a, UniProt Q81495); assay: biochemical
HCV NS3/4A protease GT3, sequence (Q81495 1033-1214): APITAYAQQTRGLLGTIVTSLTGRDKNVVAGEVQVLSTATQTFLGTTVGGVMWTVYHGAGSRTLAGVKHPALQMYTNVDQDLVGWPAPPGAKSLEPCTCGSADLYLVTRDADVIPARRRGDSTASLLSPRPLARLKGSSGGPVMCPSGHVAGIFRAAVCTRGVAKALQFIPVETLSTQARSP
HCV NS3/4A protease GT3, sequence (Q81495 1664-1717): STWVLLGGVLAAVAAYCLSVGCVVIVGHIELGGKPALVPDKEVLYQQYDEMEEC

[5] = test system: HCV NS3/4A protease D168A variant; assay: biochemical; type: biochemical, Hepatitis C virus; settings: Table S1, value in parentheses
Procedure, shortened: as §1

Compound | Ki [3] [nM] | Ki [4] [nM] | Ki (HCV NS3/4A protease GT3) [nM] | Fold Change of D168A Ki with respect to GT1a wild-type [5] | fold increase in potency against D168A compared to the parent compound [4] [fold] | also measured
tert-Butyl ((2R,6S,13aS,14aR,16aS, Z)-2-((7-methoxy-3-(trifluoromethyl) quinoxalin-2-yl) oxy)-14a-(((1-methylcyclopropyl) sulfonyl) carbamoyl)-5,16-dioxo-1,2,3,5,6,7,8,9,10,11,13a,14,14a,15,16,16a-hexadecahydrocyclopropa[e]pyrrolo[1,2-a] [1,4] diazacyclopentadecin-6-yl) carbamate |  |  |  |  |  | ring closure, isolated yield ([1]; 5.73 mM): 73%
COc1ccc2nc(C(F)(F)F)c(O[C@@H]3C[C@H]4C(=O)N[C@]5(C(=O)NS(=O)(=O)C6(C)CC6)C[C@H]5/C=C\CCCCC[C@H](NC(=O)OC(C)(C)C)C(=O)N4C3)nc2c1 [CH-24, tert-Butyl ((2R,6S,13aS,14aR,16aS, Z)-2-((7-methoxy-3-(trifluoromethyl)quinoxalin-2-yl)oxy)-14a-(((1-methylcyclopropyl)sulfonyl)carbamoyl)-5,16-dioxo-1,2,3,5,6,7,8,9,10,11,13a,14,14a,15,16,16a-hexadecahydrocyclopropa[e]pyrrolo[1,2-a] [1,4]diazacyclopentadecin-6-yl) carbamate] | 5.77 ± 1.78 | 118 ± 13 |  |  |  | ring closure, yield of all isomers ([2]; from C=CCCCCC[C@H](NC(=O)OC(C)(C)C)C(=O)N1C[C@H](Oc2nc3cc(OC)ccc3nc2C(F)(F)F)C[C@H]1C(=O)N[C@]1(C(=O)NS(=O)(=O)C2(C)CC2)C[C@H]1C=C, Zhan 1B, 1,2-dichloroethane, 5.73 mM): 73%
COc1ccc2nc(C)c(O[C@@H]3C[C@H]4C(=O)N[C@]5(C(=O)NS(=O)(=O)C6(C)CC6)C[C@H]5/C=C\CCCCC[C@H](NC(=O)OC5(C)CCCC5)C(=O)N4C3)nc2c1 [AJ-74, 1-Methylcyclopentyl ((2R,6S,13aS,14aR,16aS, Z)-2-((7-methoxy-3-methylquinoxalin-2-yl)oxy)-14a-(((1-methylcyclopropyl)sulfonyl)carbamoyl)-5,16-dioxo-1,2,3,5,6,7,8,9,10,11,13a,14,14a,15,16,16a-hexadecahydrocyclopropa[e]pyrrolo[1,2-a][1,4]diazacyclopentadecin-6-yl) carbamate] | 1.78 ± 0.3 | 16 ± 1.2 | 151 ± 11 | (9) fold |  | 
COc1ccc2nc(C)c(O[C@@H]3C[C@H]4C(=O)N[C@]5(C(=O)NS(=O)(=O)C6(C)CC6)C[C@H]5/C=C\CCCCC[C@H](NC(=O)OC5(C)CCCC5)C(=O)N4C3)nc2c1 [JZ01-19] |  |  |  |  | ~3 | Ki (HCV NS3/4A protease GT3; Table 2, read-out: Ki GT3): 121 ± 16 nM; Fold Change of D168A Ki with respect to GT1a wild-type ([5]; listed as P4-3): (32) fold; Ki ([3]; Table 2, read-out: Ki WT (GT1a)): 1.13 ± 0.22 nM; Ki ([3]; Table S1, Morrison equation fit, read-out: Ki GT1a WT): 1.13 ± 0.22 nM; Ki ([4]; Table 2, read-out: Ki D168A): 36 ± 1.8 nM; Ki ([4]; Table S1, Morrison equation fit, read-out: Ki D168A): 36 ± 1.8 nM
COc1ccc2nc(C)c(O[C@@H]3C[C@H]4C(=O)N[C@]5(C(=O)NS(=O)(=O)C6(C)CC6)C[C@H]5/C=C\CCCCC[C@H](NC(=O)OC5CCCCC5)C(=O)N4C3)nc2c1 [NR03-67, Cyclohexyl ((2R,6S,13aS,14aR,16aS,Z)-2-((7-methoxy-3-methylquinoxalin-2-yl)oxy)-14a-(((1-methylcyclopropyl)sulfonyl)carbamoyl)-5,16-dioxo-1,2,3,5,6,7,8,9,10,11,13a,14,14a,15,16,16a-hexadecahydrocyclopropa[e]pyrrolo[1,2-a][1,4]diazacyclopentadecin-6-yl)carbamate] | 0.94 ± 0.25 | 12.7 ± 1.2 | 145 ± 7 | (14) fold | ~3 | 
COc1ccc2nc(C)c(O[C@@H]3C[C@H]4C(=O)N[C@]5(C(=O)NS(=O)(=O)C6(C)CC6)C[C@H]5/C=C\CCCCC[C@H](NC(=O)O[C@@H]5C[C@@H]6C[C@@H]6C5)C(=O)N4C3)nc2c1 [NR03-77, (1R,3R,5S)-Bicyclo[3.1.0]hexan-3-yl ((2R,6S,13aS,14aR,16aS,Z)-2-((7-methoxy-3-methylquinoxalin-2-yl)oxy)-14a-(((1-methylcyclopropyl)sulfonyl)carbamoyl)-5,16-dioxo-1,2,3,5,6,7,8,9,10,11,13a,14,14a,15,16,16a-hexadecahydrocyclopropa[e]pyrrolo[1,2-a][1,4]diazacyclopentadecin-6-yl)carbamate] | 0.54 ± 0.2 | 2.3 ± 0.7 | 38.6 ± 1.5 | (4) fold | 26 | fold improvement in potency against WT compared to P4-2 ([3]; compared to P4-2): ~3 fold; fold more potent than grazoprevir towards D168A ([4]; compared to grazoprevir): 20 fold
tert-Butyl ((2R,6S,13aS,14aR,16aS, Z)-2-((7-methoxy-3-methylquinoxalin-2-yl) oxy)-14a-(((1-methylcyclopropyl) sulfonyl) carbamoyl)-5,16-dioxo-1,2,3,5,6,7,8,9,10,11,13a,14,14a,15,16,16a-hexadecahydrocyclopropa[e]pyrrolo[1,2-a] [1,4] diazacyclopentadecin-6-yl) carbamate |  |  |  |  |  | ring closure, isolated yield ([1]; 4.95 mM): 70%
COc1ccc2nc(C)c(O[C@@H]3C[C@H]4C(=O)N[C@]5(C(=O)NS(=O)(=O)C6(C)CC6)C[C@H]5/C=C\CCCCC[C@H](NC(=O)OC(C)(C)C)C(=O)N4C3)nc2c1 [JZ01-15, tert-Butyl ((2R,6S,13aS,14aR,16aS, Z)-2-((7-methoxy-3-methylquinoxalin-2-yl)oxy)-14a-(((1-methylcyclopropyl)sulfonyl)carbamoyl)-5,16-dioxo-1,2,3,5,6,7,8,9,10,11,13a,14,14a,15,16,16a-hexadecahydrocyclopropa[e]pyrrolo[1,2-a] [1,4]diazacyclopentadecin-6-yl) carbamate] | 3.6 ± 0.44 | 52 ± 2.4 |  | (14) fold |  | ring closure, yield of all isomers ([2]; from C=CCCCCC[C@H](NC(=O)OC(C)(C)C)C(=O)N1C[C@H](Oc2nc3cc(OC)ccc3nc2C)C[C@H]1C(=O)N[C@]1(C(=O)NS(=O)(=O)C2(C)CC2)C[C@H]1C=C, Zhan 1B, 1,2-dichloroethane, 4.95 mM): 70%; ring closure, yield of all isomers ([2]; from C=CCCCCC[C@H](NC(=O)OC(C)(C)C)C(=O)N1C[C@H](Oc2nc3cc(OC)ccc3nc2C)C[C@H]1C(=O)N[C@]1(C(=O)NS(=O)(=O)C2(C)CC2)C[C@H]1C=C, Zhan 1b catalyst, 1,2-DCE, 4.95 mM): 70%
COc1ccc2nc(C(F)(F)F)c(O[C@@H]3C[C@H]4C(=O)N[C@]5(C(=O)NS(=O)(=O)C6(C)CC6)C[C@H]5/C=C\CCCCC[C@H](NC(=O)OC5(C)CCCC5)C(=O)N4C3)nc2c1 [NR02-15, 1-Methylcyclopentyl ((2R,6S,13aS,14aR,16aS,Z)-2-((7-methoxy-3-(trifluoromethyl)quinoxalin-2-yl)oxy)-14a-(((1-methylcyclopropyl)sulfonyl)carbamoyl)-5,16-dioxo-1,2,3,5,6,7,8,9,10,11,13a,14,14a,15,16,16a-hexadecahydrocyclopropa[e]pyrrolo[1,2-a][1,4]diazacyclopentadecin-6-yl)carbamate] | 0.9 ± 0.1 | 11.8 ± 1.8 | 161 ± 13 |  |  | 
